From US20250188162A1, “INHIBITOR OF INTERLEUKIN-1 RECEPTOR TYPE 1 FOR USE IN THE TREATMENT OF CANCER” (Buzzard Pharmaceuticals AB, priority 2022, published 2025)

Assays:
IKKβ = test: immunoblots of mouse BMDM exposed to VCAN; format: cell-based; conditions: primary murine BMDM, recombinant human versican 1 nM
Text: (§1) FIG. 4. Tumor-secreted versican drives macrophage IKKβ, metastasis, and is a cancer biomarker. (A-E) Kras-mutant and wild-type cancer cell RNA and supernatants were subjected to microarray and LC-MSMS analyses, respectively. Shown are experimental design (A), top-20 over-represented transcripts (B) and secretory proteins (C), and Vcan/VCAN mRNA/protein expression (D, E). n=2-3/group; P, probability, two-way ANOVA; Bold letters, false discovery rate (FDR) q<0.05 compared with Kras-wild-type cells, two-stage linear step-up procedure of Benjamini, Hochberg, and Yekutieli. (F, G) Representative bioluminescent images (F) and data summary (G) from pNGL RAW264.7 cells exposed to lipopolysaccharide (LPS; 1 μg/mL) or recombinant proteins (1-2 nM). n=5/group; P, probability, two-way ANOVA; ****, P<0.0001 compared with other groups, Bonferroni post-tests. (H) Immunoblots of mouse BMDM exposed to VCAN. n=5/group. (I-M) LLC cells stably expressing control (shC) and anti-Vcan (shVcan) shRNA were validated and injected intrapleurally into NGL mice. Shown are immunoblots (I), Vcan mRNA expression (J), and data summaries (K, L) and representative photographic and bioluminescent images (M) taken 14 days post-tumor cells. (I, J) n=5/group; (K-M) n=16/group; P, probability, unpaired Student's t-test. […]

NF-κB = NF-κB ligand screen in pNGL-expressing RAW264.7 macrophages; format: cell-based, murine; conditions: recombinant VCAN 1 nM, compared with LPS 1 μg/mL
Text: as §1, with “mice.” for “mice. Shown are immunoblots (I), Vcan mRNA expression (J), and data summaries (K, L) and representative photographic and bioluminescent images (M) taken 14 days post-tumor cells. (I, J) n=5/group; (K-M) n=16/group; P, probability, unpaired Student's t-test.”
Mice were imaged for NF-κB reporter bioluminescent signal daily starting at day 10 post-tumor cell injection until sacrifice. […] Data were analyzed using Living Image v.4.2 (Perkin-Elmer, Waltham, MA) as described previously (9, 10, 15, 15, 22, 29, 39). […]

Substance: VCAN: recombinant human active versican, TLR2 ligand glycoprotein
- IKKβ induction (IKKβ): induced IKKβ in primary murine BMDM
- macrophage NF-κB-driven transcription (NF-κB): potently activates macrophage NF-κB-driven transcription to the same degree as the TLR4 ligand lipopolysaccharide (LPS)
